{"source": "patent US20220105051A1", "about": "“COMPOUNDS FOR INCREASING MHC-I EXPRESSION AND MODULATING HISTONE DEACETYLASE ACTIVITY” (Cava Healthcare Inc., priority 2019, published 2022)", "key": {"MHC-I": {"test_system": "MHC-I", "test": "MHC-I surface expression by flow cytometry", "format": "cell-based, murine", "details": "for induction of MHC-I expression at the cell surface: 48 hours after treatment, flow cytometry; for MHC class I upregulation: relative to DMSO", "procedure": "A9 and TC-1 cell lines were trypsinized (0.05%, Gibco), washed twice with PBS (Gibco), and stained with allophycocyanin (APC) conjugated anti-mouse H-2K^b antibody (1:200, Biolegend) suspended in 150 μL of FACS buffer (PBS+2% FBS) for 20 minutes at 4° C. Cells were washed twice with PBS and re-suspended in 200 μL FACs buffer containing 1 μL of 7-aminoactinomycin (7AAD) viability stain (Biolegend). Flow cytometry was performed on the LSRII (BDBiosciences) and analysis was done using FlowJo (Flow cytometry Analysis Software).\nThe marine extract library was provided by Dr. Raymond J. Andersen (UBC). The marine invertebrate specimens were collected by SCUBA diving at a 40 metre depth from regions of high marine biodiversity in Papua New Guinea, Indonesia, Thailand, Sri Lanka, Dominica, Brazil, British Columbia, South Africa, and Norway 35. Previously curcuphenol was identified as the active component in one of the marine extracts showing induction of the APM, and since then two new generations of curcuphenol analogues were synthesized in the lab of Dr. Raymond Anderson. To evaluate the ability of these compounds to induce MHC-I surface expression, A9 cells were plated in 6 well plates at 10^5 cells/well and incubated for 24 hours at 37° C. in a 5% CO2 humidified atmosphere. After 24 hours the medium was removed and replaced with medium containing varying concentration of synthesized compounds (6.7 μg/mL, 20 μg/mL, 60 μg/mL). […] Following treatment, cells were incubated for 48 hours at 37° C. with 5% CO2 and humidified atmosphere. After incubation cells were subjected to flow cytometry.\nEvaluation of MHC-I surface expression by flow cytometry. LMD:TAP-1 cells or A9 cells were plated in 6 well plates at a concentration of 10,000 cells per well in a 2 mL volume. The next day, cells were treated with the indicated concentrations of the compounds and incubated for 48 hours at 37° C. After incubation, the cells were trypsinized, washed and stained with APC-conjugated anti-mouse MHC-I (specifically anti-H-2K^b) antibody (Biolegend) and assessed by flow cytometry analysis."}, "Maximum tolerated dose": {"test": "Maximum tolerated dose", "format": "in vivo", "details": "for MTD at 14 days: female, C57BL/6, mouse, in vivo, ip, limited by solubility in 1% DMSO, read-out: highest maximum tolerated dose; for signs of toxicity (clinical signs, necropsy): i.p. 1.0, 3.5 and 5.2 mg/kg, 14 days, C57BL/6 mice", "procedure": "British Columbia Cancer Agency (BCCA) completed the maximum tolerated dose study for compound P02-113, whereas P03-97-1 was assessed in-house following the same protocol. […]. The compounds were injected intraperitoneally (i.p.) at concentrations of 1.0 mg/kg (n=3), 3.5 mg/kg (n=3), or 5.2 mg/kg (n=3). These doses were based on the maximum solubility of the compounds that was determined using the known solubility of curcuphenol. Mice were assessed for clinical signs of toxicity for 14 days following injection. After 14 days the mice were euthanized and examined by necropsy, P02-113 was performed at BCCA, and P03-97-1 was performed by Animal Care Services located at the Center for Comparative Medicine on UBC Point Grey campus, Vancouver BC.\nIn vivo efficacy studies. Maximum tolerated dose (MTD). The maximum tolerated dose for the selected compounds, P02-113 and P03-97-1, were assessed in vivo. C57BI/6 mice were injected intraperitoneally (i.p.) with the test compounds at 3 different concentrations: 1.0 mg/kg (n=3), 3.5 mg/kg (n=3) and 5.2 mg/kg (n=3). Mice were then assessed for 14 days for clinical signs of toxicity and at the end point a necropsy was performed. […]"}, "HDAC2": {"biological_target": "T1, HDAC2 (Homo sapiens, UniProt Q92769)", "T1 construct": "purchased BPS Biosciences", "T1 sequence (Q92769 whole entry)": "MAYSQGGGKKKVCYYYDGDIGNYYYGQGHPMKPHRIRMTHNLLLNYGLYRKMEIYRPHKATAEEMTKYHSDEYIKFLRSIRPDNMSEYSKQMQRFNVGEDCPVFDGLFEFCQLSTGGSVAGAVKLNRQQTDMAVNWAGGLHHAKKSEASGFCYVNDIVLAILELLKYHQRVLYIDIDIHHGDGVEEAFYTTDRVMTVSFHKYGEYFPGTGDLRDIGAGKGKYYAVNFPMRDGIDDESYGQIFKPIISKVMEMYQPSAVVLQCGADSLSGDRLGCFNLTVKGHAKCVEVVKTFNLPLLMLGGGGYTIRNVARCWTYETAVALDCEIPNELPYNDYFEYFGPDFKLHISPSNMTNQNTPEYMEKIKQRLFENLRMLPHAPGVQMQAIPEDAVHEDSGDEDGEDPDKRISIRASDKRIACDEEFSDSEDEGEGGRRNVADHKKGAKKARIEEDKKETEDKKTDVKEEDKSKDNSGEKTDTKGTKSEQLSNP", "test": "Individualized HDAC assay, HDAC2", "format": "biochemical", "details": "purified enzyme, 5 to 0.02 μM", "procedure": "The activity of the curcuphenol analogues was assessed with purified HDAC enzymes from all classes I, II, and IV, as well as a select member of HDAC class III (SIRT1). HDACs 1-9 and SIRT1 were evaluated using HDAC Fluorogenic Assay Kits (BPS Biosciences). All assays were completed in black-sided clear-bottom 96 well plates (PerkinElmer), and all treatments were plated in triplicates. Treatment started at 5 μM and was two-fold diluted to a concentration 0.02 μM. The assays were measured using the Synergy HI hybrid reader (BioTek) and Gen5 software (BioTek), excitation was set to 360 nm and detection was measured at 450 nm with a gain of 100. […] Luminescence was read 30 minutes after HDAC-Glo™I/II reagent was added using the Synergy HI hybrid reader (BioTek) and Gen5 software (Bio-Tek). […] The relative mean of activity of the HDAC being measured was determined and all wells that received treatment were divided this average, to give a percentage of activity.\nTo evaluate the effect of the compounds on specific HDACs, their activity was assessed with purified HDAC enzymes from all classes I, II, and IV, as well as a select member of HDAC class III (SIRT1). HDACs 1-9 and SIRT1 were evaluated using HDAC Fluorogenic Assay Kits (BPS Biosciences) following the manufacturer's recommendations. […] The assays were measured using the Synergy HI hybrid reader (BioTek) and Gen5 software (Bio-Tek). […]"}}, "note": "“Also recorded” adds a separate entry of the source.", "data": [{"smiles": "CC(C)=CCC[C@H](C)c1ccc(C)cc1O", "note": "[Curcuphenol, curcuphenol]", "values": [{"measurement": "concentration of optimum MHC upregulation and live cell frequency", "setting": "MHC-I; A9 cells, 48 hours", "result": 0.064, "unit": "µmol"}, {"measurement": "induction of MHC-I expression at the cell surface", "setting": "MHC-I; A9 cells", "result": "enhances the expression of MHC-I"}, {"measurement": "MHC class I upregulation", "setting": "MHC-I; A9 cells, 48 hours, 0.032, 0.064 and 0.128 μmol", "result": "upregulated"}, {"measurement": "MHC class I upregulation", "setting": "MHC-I; A9 cells, 48 hours, 0.055, 0.064 and 0.071 umol", "result": "upregulated"}, {"measurement": "surface MHC I molecules", "setting": "MHC-I; cancer cell lines in vitro", "result": "significantly increased"}]}, {"smiles": "CC(C)=CCCCc1ccc(C)cc1O", "note": "[P02-113]", "values": [{"measurement": "induction of MHC-I expression at the cell surface", "setting": "MHC-I; A9 cells", "result": "strong induction of MHC-I; also recorded: greatest consistent induction of MHC-I expression; also recorded: highest expression of MHC-I"}, {"measurement": "MTD at 14 days", "setting": "Maximum tolerated dose", "result": 5.2, "unit": "mg/kg"}, {"measurement": "signs of toxicity (clinical signs, necropsy)", "setting": "Maximum tolerated dose", "result": "no signs of toxicity or abnormalities; also recorded: no adverse drug effects"}, {"measurement": "HDAC2 activity", "setting": "HDAC2", "result": "no significant change in HDAC activity"}]}, {"smiles": "COc1ccc(C(C)CCC=C(C)C)c(O)c1", "note": "(stereo not shown) [P03-97-1]", "values": [{"measurement": "induction of MHC-I expression at the cell surface", "setting": "MHC-I; A9 cells", "result": "strong induction of MHC-I; also recorded: greatest consistent induction of MHC-I expression; also recorded: highest expression of MHC-I"}, {"measurement": "MTD at 14 days", "setting": "Maximum tolerated dose", "result": 5.2, "unit": "mg/kg"}, {"measurement": "signs of toxicity (clinical signs, necropsy)", "setting": "Maximum tolerated dose", "result": "no signs of toxicity or abnormalities; also recorded: no adverse drug effects"}, {"measurement": "HDAC2 activity", "setting": "HDAC2", "result": "no significant change in HDAC activity"}]}]}
